Key:
[1] = test system: Trypanosoma brucei brucei; assay: microbe, parasite or virus in culture; assay type: functional, organism-based; conditions: 427
in vitro = conditions: human
[2] = test system: Trypanosoma brucei brucei; assay: Antitrypanosomal activity against Trypanosoma brucei brucei by pathogen box screening based assay; assay type: functional, organism-based

Row | SMILES | IC50 [1] | selectivity ratio (in vitro) | IC50 [2]
1 | CCc1ccccc1-n1c(C)cn2c3c(=O)n(C(C(=O)OC)C(C)C)c(=O)n(C)c3nc12 (configuration not stated) | 130 nM | – | –
2 | COc1ccc(OC)c(NCc2ccc3nc(N)nc(N)c3c2Cl)c1 | 2070 nM | 21 | –
3 | COc1ccc2nccc(NC(=O)C3CCN(CCc4ccc(Cl)cc4)CC3)c2n1 | – | 0.8 | –
4 | c1ccc(Oc2ccc(-c3cc(N4CCNCC4)[nH]n3)cc2)cc1 | 5100 nM | – | –
5 | Cc1noc(C)c1COc1cccc(C(=O)N=c2[nH]cccc2C)c1 | 1200 nM | – | –
6 | NCCN(C(=O)c1ccc(Cl)cc1Cl)c1ccc(OCc2ccc(Cl)cc2)cc1 | 240 nM | – | –
7 | Cc1ccc(S(=O)(=O)Nc2ccc(CN3CCN(C(=O)c4cccc(C#N)c4)CC3)cc2)cc1 | 240 nM | – | –
8 | N=C(N)Nc1ccc(-c2ccc(-c3ccc(NC(=N)N)cc3Cl)o2)c(Cl)c1 | 5700 nM | – | –
9 | CN(C)c1cc(NC(=O)Nc2ccccc2)c2ccccc2n1 | 3360 nM | 5.3 | –
10 | O=C(NCCc1ccn(-c2ccccc2)n1)C1CCCCC1 | 270 nM | – | –
11 | CCN(CC)S(=O)(=O)c1ccc(C(=O)Nc2cc(C)nn2-c2nc(C)c(C)c(=O)[nH]2)cc1 | 4300 nM | – | –
12 | CCCCN(CCCC)c1c(C#N)cc(S(=O)(=O)Nc2ccccc2)cc1C#N | 1200 nM | – | –
13 | O=C(Nc1ccc(F)c(-c2nc3cc(-c4ccccc4)cnc3[nH]2)c1)N1CCCC1 | 20 nM | – | –
14 | COc1cc(-c2cc(-c3ccc(S(C)(=O)=O)cc3)cnc2N)ccc1O | – | 76 | –
15 | CNC(=O)C1Cc2ccccc2N1C(=O)Cc1ccc(F)cc1 (configuration not stated) | 1500 nM | – | –
16 | O=C(Nc1nc(-c2ccccn2)cs1)c1cncn1-c1ccccc1 | 2870 nM | – | –
17 | Cc1nn(C)c(C)c1NS(=O)(=O)c1c(Cl)cc(-c2ccnc(N3CCNCC3)c2)cc1Cl | 10 nM | – | –
18 | Cc1ncc(-c2ccnc(Nc3ccc(S(C)(=O)=O)cc3)n2)n1C(C)C [AZD-5438] | 140 nM | – | –
19 | CS(=O)(=O)c1ccc(C(=O)N(CC2CCCO2)c2nc3ccccc3s2)cc1[N+](=O)[O-] (configuration not stated) | 3490 nM | 2.3 | –

Row | SMILES | IC50 [1] | selectivity ratio (in vitro) | IC50 [2]
20 | O=C(Nc1ccc2c(c1)B(O)OC2)c1ccccc1C(F)(F)F | 110 nM | – | –
21 | CNC(=O)c1nn(C)c2c1C(C)(C)Cc1cnc(Nc3ccc(N4CCN(C)CC4)cc3)nc1-2 [MILCICLIB] | 170 nM | – | –
22 | Nc1nc2cc(-c3cncc(Oc4ccc(F)cc4)c3)ccc2[nH]1 | 1050 nM | – | –
23 | O=C(NCCc1ccccc1)c1cc(-c2cccnc2)cnc1NCC1CC1 | 6020 nM | – | –
24 | N=C(N)c1ccc(-c2cc(-c3ccccc3)on2)cc1 | 3500 nM | – | –
25 | O=C(Nc1ccc(N2CCNCC2)cc1)c1ccn2ncc(-c3cccc(Cl)c3)c2n1 | 1450 nM | – | –
26 | CCCn1c(NC(=O)c2ccc3ccccc3n2)nc2ccccc21 | – | 3.5 | –
27 | COc1cccc(-n2nnnc2S(C)(=O)=O)c1 | 4120 nM | – | –
28 | Cc1ccc2c(c1C)NC(=O)C21NN=C(c2ccccc2)S1 (configuration not stated) | 4680 nM | – | –
29 | CS(=O)(=O)c1ccccc1C(=O)N(Cc1ccccc1)c1ccccc1 | 500 nM | – | –
30 | COc1ccc(C2=NN(C3CCCCCC3)C(=O)C2(C)C)cc1OCCCCOc1ccc(-c2nn[nH]n2)cc1 | 2300 nM | – | –
31 | COC(=O)c1c(NC(=O)c2c(F)c(F)c(F)c(F)c2F)sc2c1CCCCC2 | – | 2.2 | –
32 | O=C(NCc1nnc2n1CCCCC2)c1ccc(-c2ccc(F)cc2)o1 | 230 nM | – | –
33 | CC1CCCCN1C(=O)NCCc1coc(-c2ccc(F)cc2)n1 (configuration not stated) | 130 nM | – | –
34 | Cc1cnc(N2CCN[C@@H](Cc3ccccc3)C2)nc1Oc1ccc(-n2ccnc2)cc1 | – | 4.9 | –
35 | O=C(Nc1ccc(C(F)(F)F)c(C(F)(F)F)c1)c1cc(Cl)ccc1O | 660 nM | – | –
36 | CN1CCC(NCc2cccc(-c3ccc(S(=O)(=O)NCc4ccccc4)cc3)c2)CC1 | 2380 nM | 59 | –
37 | O=C(Nc1ccccc1)c1ccc(-c2cc3ccncc3cc2OC2CCNCC2)s1 | 2720 nM | – | –
38 | Cc1nn2c(=O)c3c([nH]c2c1-c1ccc(Cl)cc1)CCCC3 | 1800 nM | – | 500 nM

Row | SMILES | IC50 [1] | selectivity ratio (in vitro) | IC50 [2]
39 | CCOC(=O)c1c(NC(=O)c2c(F)c(F)c(F)c(F)c2F)sc(C(N)=O)c1C | 2990 nM | 2.2 | –
40 | Oc1c(I)cc(I)c2cccnc12 [IODOQUINOL] | – | 13 | –
41 | COc1ccc(C2=NN(C3CCCCCC3)C(=O)[C@@H]3CC=CC[C@H]23)cc1OCCCCOc1ccc(-c2nnn[nH]2)cc1 | 500 nM | – | –
42 | c1ccc(Oc2ccc(-c3cc(C4CCOCC4)[nH]n3)cc2)cc1 | 1800 nM | – | –
43 | CC1=Nc2ccc(Cl)cc2C(O)(c2ccc(C)cc2)N1CCN1CCCCC1 (configuration not stated) | 4500 nM | – | –
44 | c1ccc(-c2nc(NC3CCCCC3)cc(C3CC3)n2)nc1 | 3510 nM | 30 | –
45 | CC(C)(C)c1cnc(NC(=O)c2ccccc2O)s1 | 5450 nM | – | –
46 | CN1CCN(S(=O)(=O)c2ccc(-c3ccc4c(Nc5ncc(Cl)cn5)ccnc4c3)cc2)CC1 | 5300 nM | – | –
47 | CCC(=O)Nc1ccccc1C(=O)Nc1ccccn1 | 1000 nM | – | –
48 | CC(C)n1nc(-c2cc3c(Cl)cccc3[nH]2)c2c(N)ncnc21 | 6100 nM | 5.8 | –
49 | CC(Oc1ccccc1)C(=O)Nc1nc(-c2ccccn2)cs1 (configuration not stated) | 3220 nM | 11 | –
50 | Cc1[nH]c2ccccc2c1C(c1cccs1)N1CCN(C)CC1 (configuration not stated) | 1500 nM | – | –
51 | COc1ccc(C(=N)N)cc1-c1cn(-c2ccc(C(=N)N)cc2)nn1 | 270 nM | – | –
52 | OCCc1ccc(Nc2nccc(-c3nnc4ccccn34)n2)cc1 | 2390 nM | 17 | –
53 | CO[C@@H](C(=O)N1Cc2[nH]nc(NC(=O)c3ccc(N4CCN(C)CC4)cc3)c2C1)c1ccccc1 [DANUSERTIB] | 1300 nM | – | –
54 | Cc1ccc2[nH]c(C3CCCNC3)c(-c3ccncc3)c2c1 (configuration not stated) | 5150 nM | – | –
55 | N=C(N)Nc1ccc(-c2ccc(-c3ccc(N=C(N)N)c(Cl)c3)o2)cc1Cl | 520 nM | – | –
56 | COc1ccc(S(=O)(=O)Nc2ccc(CN3CCN(C(=O)c4cccc(C#N)c4)CC3)cc2)cc1 | 1100 nM | – | –
57 | Nc1nccc2ccc(-c3ccc4nccn4c3)cc12 | 3290 nM | – | –

From ChEMBL document CHEMBL4368861 (Medchemcomm, 2018)
